From patent publication EP0826686A2, “Tricyclic compounds, their production and use” (TAKEDA CHEMICAL INDUSTRIES, LTD., priority 1996, dated 1998)
Counter-ions that a name gives are not always drawn.

Experiments:
[1] = tested on: Human skin fibroblasts (Hs68); assay: PDGF-induced proliferation in Hs68 cells (3H-thymidine uptake); format: cell-based; conditions: PDGF-BB 5 ng/ml, 24 hours; for inhibition at 1 µM: Concentration 1x10^-6 M; for inhibition at 3 µM: Concentration 3x10^-6 M; for inhibition at 0.3 µM: Concentration 3x10^-7 M
Procedure: Experiments of PDGF-induced proliferation in Hs68 cells Method: Human skin fibroblasts (Hs68, Institute for Fermentation, Osaka) were seeded in 48-well plates precoated with collagen type I (Falcon) (25000 cells/well), and cultured for one day. Then, the cells were cultured in Dulbecco's modified Eagle's medium (high glucose) containing 0.1% bovine serum albumin for 48 hours. Fifteen (15) minutes after the addition of the drug, the cells were stimulated with 5 ng/ml of PDGF-BB (Becton Dickinson Labware) containing ^3H-thymidine (final concentration 0.4 mCi/ml) (Amersham). After 24 hours, the reaction was stopped with 7.5% trichloroacetic acid at 4°C and the plate was allowed to stand at 4°C for 30 minutes. The cells were washed with Ca^2+- and Mg^2+-free phosphate-buffered saline (PBS), after then 0.1% sodium dodecyl sulfate (SDS)/0.4N NaOH was added and the plate was allowed to stand at 37°C for 1 hour to lyze the cells. The whole content of each well was taken in a vial and neutralized with 1N HCl, and then toluene scintillator (Wako Pure Chemical Ind.) was added to each vial. After stirring, the amount of ^3H-thymidine incorporated in the cells was determined with a liquid scintillation counter. The cellular uptake of ^3H-thymidine was used as an indicator of cell proliferation. The effect of the drug on the PDGF-BB (5 ng/ml) uptake of ^3H-thymidine was expressed as % inhibition. […]

[2] = tested on: Glomerular mesangial cells; assay: Inhibition of the proliferation of mesangial cells (PDGF-BB stimulated, 3H-thymidine uptake); format: cell-based, Sprague-Dawley rats; conditions: Rattus norvegicus, Glomerular mesangial cell, 24 h, PDGF-BB 5 ng/ml, read-out: Proliferation inhibiting activity (% Inhibition); for inhibition at 1 µM: Dose 10^-6 M; for inhibition at 3 µM: Dose 3 x 10^-6 M
Procedure: Glomerular mesangial cells isolated from 4-week-old male Sprague-Dawley rats (Japan Clea) were cultured in a 24-well plate (Falcon) up to the subconfluence. The cells were subsequently cultured in Dulbecco's modified Eagle MEM containing 0.2% bovine serum albumin for 24 - 48 hours before addition of a drug substance. Fifteen minutes after the drug substance was added to the culture, the cells were allowed to react with 5 ng/ml of PDGF-BB (Becton Dickinson Labwere) for stimulation, simultaneously adding ^3H-Thymidine (final concentration 0.2 µ Ci/ml) (Amasham), for 24 hours. The reaction was blocked by adding 7.5 % TCA of 4°C. The mixture was allowed to stand at 4°C for 30 minutes. The cells were washed with phosphate buffered saline containing no Ca^2+ and Mg^2+. A 0.4N NaOH/0.1% sodium dodecyl sulfate (SDS) solution was added to the washed cells and the mixture was allowed to stand at 37°C for an hour to solubilize the cells. The whole qauntity was placed in a vial and neutralized with 1N HCl. Scintillator A (Wako Pure Chemicals) was added to this with stirring. The quantity of ^3H-Thymidine incorporated in the cells was measured by the liquid scintillation counter. The increase in the quantity of the incorporated ^3H-Thymidine was designated as the parameter of the cell proliferation. The inhibitory effect of a drug substance on the intake with PDGF-BB (5 ng/ml) was expressed as % inhibition (Table 1).

SHC rats = assay: Urinary protein excretion in SHC rats; format: in vivo, Spontaneously hypercholesterolemic rats; conditions: 1 mg/kg/day oral once daily
From the text: Experiments of urinary protein excretion in SHC rats Method: Spontaneously hypercholesterolemic rats (male, 7 weeks old) were given a drug suspended in 0.5% methylcellulose (100 cP) by oral administration once daily for 6 weeks. A control group was given 0.5% methylcellulose (100 cP) by the same route once daily. As a normal control group, Sprague-Dawley rats (SD rats) (male, 7 weeks old, CLEA Japan, Inc.) were given 0.5% methylcellulose (100 cP) orally once daily. Before the start of medication and at 2-weeks intervals after the first administration of drugs, urine was collected for twenty four hours and the total protein and albumin excreted in the urine were determined. The assay of total protein and albumin was carried out using the A/GB Test Wako (Wako Pure Chemical Ind.).

[3] = duration of administration 0 weeks (before start of medication)
[4] = duration of administration 2 weeks
[5] = duration of administration 4 weeks
[6] = duration of administration 6 weeks

O=C1c2cccc3ncc(n23)CN1CCC1CCN(S(=O)(=O)C(F)(F)F)CC1 [Example 19, 4,5-Dihydro-4-[2-(1-trifluoromethanesulfonylpiperidin-4-yl)ethan-1-yl]-3H-1,4,8b-triazaacenaphthylen-5-one]
inhibition at 1 µM [1]: 72.8%

O=c1c2cnc3cccc(n1CC1CCN(S(=O)(=O)C(F)(F)F)CC1)n32 [8(ii), 1,2-Dihydro-1-(1-trifluoromethanesulfonylpiperidin-4-ylmethyl)-1,4,7b-triazacyclopent[cd]inden-2-one]
inhibition at 1 µM [1]: 74.9%

O=C1c2cnc3cccc(n23)CN1CC1CCN(S(=O)(=O)C(F)(F)F)CC1 [11(iii), 4,5-Dihydro-4-(1-trifluoromethanesulfonylpiperidin-4-ylmethyl)-3H-1,4,8b-triazaacenaphthylen-3-one hydrochloride]
inhibition at 3 µM [1]: 59.2%

Cc1nc2cccc3n(CCC4CCN(S(=O)(=O)C(F)(F)F)CC4)c(=O)c1n23 [Compound 3, 1,2-dihydro-3-methyl-1-[2-(1-trifluoromethanesulfonylpiperidin-4-yl)ethan-1-yl]-1,4,7b-triazacyclopent[cd]inden-2-one hydrochloride]
inhibition at 0.3 µM ([2]; Dose 3 x 10^-7 M): 39% | inhibition at 1 µM [2]: 91.1%

CC(C)(C)OC(=O)N1CCC(Cn2c(=O)c3cnc4cccc2n43)CC1 [Example 1, 1,2-Dihydro-1-(1-tert-butoxycarbonylpiperidin-4-ylmethyl)-1,4,7b-triazacyclopent[cd]inden-2-one]
inhibition at 3 µM [2]: 39.4%

CC(C)(C)OC(=O)N1CCC(CCn2c(=O)c3cnc4cccc2n43)CC1 [Example 2, 1,2-Dihydro-1-[2-(1-tert-butoxycarbonylpiperidin-4-yl)ethan-1-yl]-1,4,7b-triazacyclopent[cd]inden-2-one]
inhibition at 3 µM [2]: 40.1% | inhibition at 10 µM ([2]; Dose 10^-5 M): 58.3% | inhibition at 1 µM [2]: 11.1%

O=C1c2cnc3cccc(n23)CN1CCC1CCN(S(=O)(=O)C(F)(F)F)CC1 [12(ii), 4,5-Dihydro-4-[2-(1-trifluoromethanesulfonylpiperidin-4-yl)ethan-1-yl]-3H-1,4,8b-triazaacenaphthylen-3-one]
inhibition at 1 µM [1]: 96.6%

O=c1c2cnc3cccc(n1CCC1CCN(S(=O)(=O)C(F)(F)F)CC1)n32 [Example 9(ii), 1,2-dihydro-1-[2-(1-trifluoromethanesulfonylpiperidin-4-yl)ethan-1-yl]-1,4,7b-triazacyclopent[cd]inden-2-one]
inhibition at 0.3 µM [1]: 94.9% | Urinary albumin (SHC rats; [3]): 12.0 mg/day | Urinary total protein (SHC rats; [3]): 39.2 mg/day | Urinary albumin (SHC rats; [4]): 10.9 mg/day | Urinary total protein (SHC rats; [4]): 50.4 mg/day | Urinary albumin (SHC rats; [5]): 46.2 mg/day | Urinary total protein (SHC rats; [5]): 91.3 mg/day | Urinary albumin (SHC rats; [6]): 129.9 mg/day | Urinary total protein (SHC rats; [6]): 199.4 mg/day

Cc1nc2cccc3nc(SCCC4CCN(S(=O)(=O)C(F)(F)F)CC4)c1n23 [25(ii), 3-Methyl-2-[2-(1-trifluoromethanesulfonylpiperidin-4-yl)ethan-1-yl]thio-1,4,7b-triazacyclopent[cd]indene]
inhibition at 0.3 µM [1]: 83.4%

Cc1nc2cccc3n(C[C@H]4CC[C@H](CNC(=O)C(F)(F)F)CC4)c(=O)c1n23 [Example 29, 1,2-Dihydro-3-methyl-1-[trans-4-(trifluoroacetylamino)methyl-1-cyclohexylmethyl]-1,4,7b-triazacyclopent[cd]inden-2-one]
inhibition at 3 µM [1]: 76.1%

Cc1ccc(S(=O)(=O)NC[C@H]2CC[C@H](Cn3c(=O)c4c(C)nc5cccc3n54)CC2)cc1 [Example 32, 1,2-Dihydro-3-methyl-1-[trans-4-(4-methylphenylsulfonylamino)methyl-1-cyclohexylmethyl]-1,4,7b-triazacyclopent[cd]inden-2-one]
inhibition at 1 µM [1]: 80.3%

Cc1nc2cccc3n(CCCC4CCN(S(=O)(=O)C(F)(F)F)CC4)c(=O)c1n23 [Example 23, 1,2-Dihydro-3-methyl-1-[3-(1-trifluoromethanesulfonylpiperidin-4-yl)propan-1-yl]-1,4,7b-triazacyclopent[cd]inden-2-one]
inhibition at 0.3 µM [1]: 44.6%

Cc1nc2cccc3n(CCC4CCN(C(=O)C(F)(F)C(F)(F)F)CC4)c(=O)c1n23 [Example 27, 1,2-Dihydro-3-methyl-1-[2-(1-pentafluoropropionylpiperidin-4-yl)ethan-1-yl]-1,4,7b-triazacyclopent[cd]inden-2-one]
inhibition at 1 µM [1]: 62.7%
